According to a melting point compilation (Tetko et al.; mined from patent text by program, amines drawn as free bases though some values may be those of a salt):

`CCN(CC)Cc1ccnc(F)c1CNC(=O)c1cnc2cc(I)ccc2n1` gave a melting point of 147 to 149 °C.
In the case of `CCC(O)c1ccccc1-c1ccc(C(=O)N2Cc3ccc(C(=O)NCc4cccnc4)n3Cc3ccccc32)cc1` (centres undefined), the melting point is reported as 111 to 115 °C.
For `CCOC(=O)Cn1c2c([nH]c(=O)c1=O)CCC1=C2C=C(n2ccc(C(=O)O)c2)CC1`, the melting point was 282 °C.
`O=C1Cc2c(cccc2OCCNCc2ccccc2)N1` showed a melting point of 145 to 146 °C.
`COC(=O)c1c(C)c(OC)cc(O)c1C=O` gave a melting point of 118 to 119 °C.
`Cc1cccc(C2=CCN(CCCn3c(=O)[nH]c4cccc(C)c4c3=O)CC2)n1` showed a melting point of 200 to 203 °C.
Molecule `COC(=O)c1c(S(N)(=O)=O)ccn1C` has a melting point of 105 to 107 °C.
`N#Cc1c(Cl)c(Cl)n(O)c1-c1ccc(Cl)cc1` showed a melting point of 156 °C.
Molecule `Cn1cc(C(=O)O)c(=O)c2cc(Cl)c(N3CCOCC3)cc21` has a melting point of 334 °C.
`CC(C)(C)CNc1nc(C#N)nc2ccc(OCc3ccccn3)cc12` gave a melting point of 160 °C.
Work on `O=C1Nc2cc(C(F)(F)F)ccc2Oc2ccccc21` yielded a melting point of 246 to 247 °C.
Work on `CCN(C=C(C#N)C#N)c1cc(C(F)(F)F)cc(C(F)(F)F)c1` yielded a melting point of 118 to 120 °C.
`CC1(C)CCCC2(C)CC(O)CCC12` (centres undefined) gave a melting point of 53 to 54 °C.
`Cc1cc(Cl)c2c(c1)C=C(/C=C/C=C/C=C/C(=O)O)CO2` gave a melting point of 248 to 250 °C.
With `COc1ccc(-c2cccs2)c2c(OC)ccc(-c3cccs3)c12` the melting point was 216 to 218 °C.
For `N#Cc1c2c(c3c(c1N1CCCC1)Cc1ccccc1-3)Cc1ccccc1-2`, the melting point was 158 to 160 °C.
Molecule `CON=C1c2c(Cl)cc(Cl)c(-n3c(=O)cc(C(F)(F)F)n(C)c3=O)c2OC1(C)C` has a melting point of 145 to 149 °C.
Work on `CC1CCc2cccc3c2N1C(=O)C3=O` (centres undefined) yielded a melting point of 241 to 243 °C.
Work on `c1ccc(N2CCOCC2)c(N=C2NCCN2)c1` yielded a melting point of 185 to 186 °C.
In the case of `O=C1Nc2ccccc2CN1C1CCN(Cc2ccccc2)CC1`, the melting point is reported as 204 to 206 °C.
With `CCCCCc1ccc(NS(=O)(=O)c2ccc(N3CCNC3=O)cc2)cc1` the melting point was 207 to 209 °C.
`COC(=O)c1c(C(F)F)nc(C(F)(F)F)c(C(=O)OC)c1OC(C)C` showed a melting point of 41 to 42 °C.
Molecule `CCCCNC(=O)NS(=O)(=O)c1cccc2c1CCCC2` has a melting point of 173 to 175 °C.
For `Cc1nnc(-c2ccccc2F)n2nc(OCc3ncnn3C)c(-c3ccsc3)c12`, the melting point was 124 to 129 °C.
Molecule `O=C(Nc1ccc2c(c1)CCC2)C(=O)N1CCC(Cc2ccc(F)cc2)CC1` has a melting point of 150 to 152 °C.
`COc1ccc2c(c1)Sc1ccc(F)cc1C(N1CCN(CCN3CCOC3=O)CC1)C2` (centres undefined) showed a melting point of 177 to 179 °C.
`CC(O)(CCBr)c1ccc(-c2cccc(F)c2)cc1` (centres undefined) gave a melting point of 72 to 74 °C.
Molecule `COc1ccccc1OCC(O)CN1CCCC(Cn2c(=O)[nH]c3ccccc32)C1` (centres undefined) has a melting point of 158 °C.
With `Cc1nn(CC(F)(F)COC(=O)c2cccnc2)c(-c2ccc(F)cc2)c1-c1ccc2c(c1)NC(=O)CO2` the melting point was 169 to 172 °C.
In the case of `Cc1cc(C)c(Nc2nc(C)ncc2S(=O)(=O)c2cccc(OCc3ccccc3)c2)c(C)c1`, the melting point is reported as 112 to 115 °C.
`Cc1ccc2cccc(OCc3c(Cl)ccc(OCCNC(=O)CCc4ccccc4)c3Cl)c2n1` gave a melting point of 112 to 114 °C.
`Cc1c(NC(=O)c2ccc(OCC3CCCO3)cc2)ccc2cc(CNCC(C)(C)O)cnc12` (centres undefined) showed a melting point of 138 °C.
Work on `CCC1(CC(=O)O)OCCc2c1[nH]c1c(OCC(F)(F)F)c(Cl)ccc21` (centres undefined) yielded a melting point of 157 °C.
In the case of `O=C(O)CC/C=C/c1nn(-c2ccccc2)c2c1CCC2`, the melting point is reported as 122 to 125 °C.
`COc1ccc(Sc2nc(-c3ccc(OC)cc3)cnc2N)cc1` showed a melting point of 149 to 151 °C.
For `O=C1c2ccc(S(=O)(=O)c3ccccc3)cc2C(=O)c2c1c(Oc1ccccc1)c1ccccc1c2Oc1ccccc1`, the melting point was 260 to 270 °C.
With `N#Cc1cc(Cl)ccc1-c1ccc(C(O)CCC(=O)O)cc1` (centres undefined) the melting point was 168 to 169 °C.
For `CCN(CC)C(=S)NC1CC2c3cccc4[nH]c(I)c(c34)CC2N(C)C1` (centres undefined), the melting point was 198 °C.
For `C=CCNC(=O)n1nc(-c2ccccc2)cc1NC(=O)CC(=O)C(F)(F)F`, the melting point was 114 to 116 °C.
For `COc1c(C(C)(C)C)cc(COc2cccc(C=C3SC(=S)NC3=O)c2)cc1C(C)(C)C`, the melting point was 239 to 243 °C.
For `COC(=O)CCc1cc2cc(C#N)ccc2o1`, the melting point was 91 to 92 °C.
With `CCOC(=O)CCCOc1ccc2c(c1)CN1CC(=O)NC1=N2` the melting point was 243 to 244 °C.
Molecule `NC(=O)/C=C/c1ccc(C(c2cc(F)ccc2F)S(=O)(=O)c2ccc(Cl)cc2)nc1` (centres undefined) has a melting point of 219 to 220 °C.
In the case of `CC(C)(C)C(O)(Cn1cncn1)C(=O)C=Cc1ccc(Cl)cc1` (centres undefined), the melting point is reported as 83 to 85 °C.
With `CS(=O)(=O)c1ccc(-n2cnc3ccc(-c4nnc(CCc5cccc(C#N)c5)o4)cc32)cc1` the melting point was 225 to 226 °C.
`N#Cc1nn(-c2c(Cl)cc(C(F)(F)F)cc2Cl)c(N)c1-c1cccs1` gave a melting point of 206 to 207 °C.
`O=C(O)Cc1cccc2c(-c3ccc(F)cc3)onc12` showed a melting point of 170 to 171 °C.
`CCSc1nc2c(C(=O)OC)sc(-c3ccccc3)c2[nH]1` showed a melting point of 214 to 215 °C.
With `Cc1c(Cl)c(Cl)c(SC(F)(F)F)c(Cl)c1Cl` the melting point was 49.5 to 50.5 °C.
In the case of `NCc1ccn(-c2cc3c(cc2[N+](=O)[O-])[nH]c(=O)c(=O)n3CC(=O)O)c1`, the melting point is reported as > 270 °C.
Work on `CC(C)C1=NCCSC1=NO` yielded a melting point of 167 to 169 °C.
With `Nc1ncc(C#Cc2ccc(Cl)cc2)c(NCCOCCO)n1` the melting point was 176 to 180 °C.
With `OC(=S)c1c(F)cccc1-c1ccccc1` the melting point was 152 to 156 °C.
For `COc1ccc(CCNCC(O)c2ccccc2OC)cc1OC` (centres undefined), the melting point was 88 °C.
In the case of `CCCCCCCCOC(=O)C(=C1SCCS1)c1cccc(C(F)(F)F)c1`, the melting point is reported as 42 to 43 °C.
`COc1cc2ncnc(Nc3ccc(F)c(Cl)c3)c2cc1OCC1(C)COC1` gave a melting point of 226 to 227 °C.
`O=P(O)(O)C(F)(F)c1ccc(CNCc2ccc(C(F)(F)P(=O)(O)O)cc2)cc1` gave a melting point of 106 to 108 °C.
Work on `COC(=O)c1[nH]c2cc(Cl)ccc2c1-c1ccc(F)cc1` yielded a melting point of 172 to 183 °C.
For `NC1CCc2cc(Cl)ccc2NC1=O` (centres undefined), the melting point was 170 to 171 °C.
In the case of `COc1ccccc1N1CCN(CCCO)CC1`, the melting point is reported as 88 to 89 °C.
In the case of `COc1ccc(C(=O)O)c2ccc(C(F)(F)F)nc12`, the melting point is reported as 248 to 249 °C.
Molecule `COc1ccc(N2CCN(c3ccc(-n4c(C)n[nH]c4=O)cn3)CC2)cc1` has a melting point of 251 to 252 °C.
For `Cc1nc(O)nc(C)c1N1CCCn2c1nc1c(Cl)ccc(C(OC(F)F)C(F)(F)F)c12` (centres undefined), the melting point was 208 to 210 °C.
For `Cc1nc2c(N)c(C(=O)C3OC3c3ccsc3)ccn2c1C` (centres undefined), the melting point was 186 to 189 °C.
For `CC(=O)SCC(CC(C)C)C(=O)Nc1cc(C)cc(C(=O)O)c1` (centres undefined), the melting point was 185 to 187 °C.
Work on `CCOC(=O)CNC(=O)c1csc(NC(=N)N)n1` yielded a melting point of 190 °C.
With `CC(=O)[C@@H]1CC(=S)N(C(C)=O)C1` the melting point was 49 to 51 °C.
For `CC(C)(C)NC(=O)c1nn(-c2cc(F)c(F)cc2F)c2c1C1CCC2C1` (centres undefined), the melting point was 127 to 130 °C.
`Ic1nc(-c2ccccn2)[nH]c1I` showed a melting point of 177 to 179 °C.
Work on `CCOC(=O)c1cc(C)cc([N+](=O)[O-])c1O` yielded a melting point of 97 °C.
`CS(=O)(=O)c1ccc(C=Cc2cc(=O)cc(-c3ccccc3)o2)cc1` gave a melting point of 239 to 241 °C.
In the case of `CC(C)n1nc(-c2sc(C(=O)NCc3ccccn3)nc2-c2ccc(F)cc2)ccc1=O`, the melting point is reported as 204 to 205 °C.
With `CC1(C)N=C(c2ccccc2)C(c2ccc(N)cc2)O1` (centres undefined) the melting point was 162 to 163 °C.
`CC1=CC2(C)CC3CCCC(C)(C2=O)C13` (centres undefined) gave a melting point of 46 to 47 °C.
